Source: patent US8247211B2, “Glycopeptide antibiotics” (American Cyanamid Company, priority 2001, dated 2012)
≈ marks a conversion by molar mass, not a printed value.

Legend:
Assay in all cases: In vitro antibacterial evaluation: minimum inhibitory concentration (MIC), broth dilution method
Format in all cases: cell-based
Staphylococcus sp. = test system: Staphylococcus sp.
How it was run: (§1)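 Inoculum: 5×10^5 CFU/mL. Range: 64-0.06 μg/mL. Medium: Muller-Hinton II […]; NCCLS M7-A2 broth dilution. Endpoint: lowest concentration inhibiting growth. Strains include methicillin-, penicillin- and/or vancomycin-resistant clinical isolates.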

Streptococcus sp. = settings: 18 hours at 35° C.
How it was run: as §1

Enterococcus sp. = settings: 18 hours at 35° C.
How it was run: as §1

Escherichia coli = settings: 18 hours at 35° C.
How it was run: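 MIC read as lowest drug level preventing visible growth. Organisms at 5×10^5 CFU/mL were exposed to a 64-0.06 μg/mL dilution series in Muller-Hinton II […] following NCCLS broth dilution standard M7-A2.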

[1] = broth dilution, inoculum 5×10^5 CFU/mL

For `CC(c1ccccc1)C1NC(=O)CNC(=O)C(CO)NC(=O)C(C(O)C2CNC(=N)N2C2OC(CO)C(O)C(O)C2O)NC(=O)C(C(O)C2CNC(=N)N2)NC(=O)C(Cc2ccc(OC3OC(CO)C(OC4OC5COC6(CC(C)(C)CC(C)(C)C6)OC5C(O)C4O)C(O)C3O)cc2)NC1=O` (stereo not drawn) [Example 207, Cyclo[glycyl-β-methylphenylalanyl-O-[4-O-[4,6-O-(3,3,5,5-tetramethylcyclohexylidene)hexopyranosyl]hexopyranosyl]tyrosyl-3-(2-iminoimidazolidin-4-yl)seryl-3-(3-hexopyranosyl-2-iminoimidazolidin-4-yl)serylseryl]], the “MIC Staphylococcus aureus (ATCC 29213)” value (Staphylococcus sp.; strain ATCC 29213) was 1 µg/mL (≈ 0.699 µM), the “MIC Staphylococcus aureus (GC 1131)” value (Staphylococcus sp.; strain GC 1131) was 2 µg/mL (≈ 1.4 µM) and the “MIC Staphylococcus aureus (GC 3051)” value (Staphylococcus sp.; strain GC 3051) was 2 µg/mL (≈ 1.4 µM). The “MIC Staphylococcus aureus (GC 3053)” value (Staphylococcus sp.; strain GC 3053) was 1 µg/mL (≈ 0.699 µM), the “MIC Staphylococcus aureus (GC 4541)” value (Staphylococcus sp.; strain GC 4541) was 1 µg/mL (≈ 0.699 µM) and the “MIC Staphylococcus aureus (GC 4542)” value (Staphylococcus sp.; strain GC 4542) was 1 µg/mL (≈ 0.699 µM). The “MIC Staphylococcus aureus-SMITH (GC 4543)” value (Staphylococcus sp.; strain GC 4543) was 1 µg/mL (≈ 0.699 µM), the “MIC Staphylococcus aureus (GC 4544)” value (Staphylococcus sp.; strain GC 4544) was 1 µg/mL (≈ 0.699 µM) and the “MIC Staphylococcus aureus (GC 4545)” value (Staphylococcus sp.; strain GC 4545) was 1 µg/mL (≈ 0.699 µM). For the same molecule, the “MIC Staphylococcus haemolyticus (GC 4546)” value (Staphylococcus sp.; strain GC 4546) was 1 µg/mL (≈ 0.699 µM), the “MIC Coagulase Negative Staphylococcus (GC 4547)” value (Staphylococcus sp.; strain GC 4547) was 1 µg/mL (≈ 0.699 µM) and the “MIC Coagulase Negative Staphylococcus (GC 4548)” value (Staphylococcus sp.; strain GC 4548) was 0.5 µg/mL (≈ 0.349 µM). For the same molecule, the “MIC Coagulase Negative Staphylococcus (GC 4549)” value (Staphylococcus sp.; strain GC 4549) was 0.5 µg/mL (≈ 0.349 µM), the “MIC Coagulase Negative Staphylococcus (GC 4551)” value (Staphylococcus sp.; strain GC 4551) was 4 µg/mL (≈ 2.79 µM) and the “MIC Streptococcus agalactiae (GC 4564)” value (Streptococcus sp.; Streptococcus agalactiae (GC 4564)) was under 0.12 µg/mL. For the same molecule, the “MIC Streptococcus pneumoniae (ATCC 6301)” value (Streptococcus sp.; Streptococcus pneumoniae (ATCC 6301)) was under 0.12 µg/mL, the “MIC Streptococcus pneumoniae (GC 1894)” value (Streptococcus sp.; Streptococcus pneumoniae (GC 1894)) was under 0.12 µg/mL and the “MIC Streptococcus pneumoniae (GC 4565)” value (Streptococcus sp.; Streptococcus pneumoniae (GC 4565)) was under 0.12 µg/mL. For the same molecule, the “MIC Streptococcus pyogenes (GC 4563)” value (Streptococcus sp.; Streptococcus pyogenes (GC 4563)) was under 0.12 µg/mL, the “MIC Streptococcus agalactiae (GC 4564)” value (Streptococcus sp.; [1]) was under 0.12 µg/mL and the “MIC Streptococcus pneumoniae (ATCC 6301)” value (Streptococcus sp.; [1]) was under 0.12 µg/mL. For the same molecule, the “MIC Streptococcus pneumoniae (GC 1894)” value (Streptococcus sp.; [1]) was under 0.12 µg/mL, the “MIC Streptococcus pneumoniae (GC 4565)” value (Streptococcus sp.; [1]) was under 0.12 µg/mL and the “MIC Streptococcus pyogenes (GC 4563)” value (Streptococcus sp.; [1]) was under 0.12 µg/mL. For the same molecule, the “MIC Enterococcus avium (GC 4558)” value (Enterococcus sp.; Enterococcus avium (GC 4558)) was 1 µg/mL (≈ 0.699 µM), the “MIC Enterococcus faecalis (ATCC 29212)” value (Enterococcus sp.; Enterococcus faecalis (ATCC 29212)) was 4 µg/mL (≈ 2.79 µM) and the “MIC Enterococcus faecalis (GC 2242)” value (Enterococcus sp.; Enterococcus faecalis (GC 2242)) was 4 µg/mL (≈ 2.79 µM). For the same molecule, the “MIC Enterococcus faecalis (GC 2691)” value (Enterococcus sp.; Enterococcus faecalis (GC 2691)) was 2 µg/mL (≈ 1.4 µM), the “MIC Enterococcus faecalis (GC 3059)” value (Enterococcus sp.; Enterococcus faecalis (GC 3059)) was 2 µg/mL (≈ 1.4 µM) and the “MIC Enterococcus faecalis (GC 4552)” value (Enterococcus sp.; Enterococcus faecalis (GC 4552)) was 4 µg/mL (≈ 2.79 µM). For the same molecule, the “MIC Enterococcus faecalis (GC 4553)” value (Enterococcus sp.; Enterococcus faecalis (GC 4553)) was 4 µg/mL (≈ 2.79 µM), the “MIC Enterococcus faecalis (GC 4554)” value (Enterococcus sp.; Enterococcus faecalis (GC 4554)) was 4 µg/mL (≈ 2.79 µM) and the “MIC Enterococcus faecalis (GC 6189)” value (Enterococcus sp.; Enterococcus faecalis (GC 6189)) was 2 µg/mL (≈ 1.4 µM). For the same molecule, the “MIC Enterococcus faecium (GC 2243)” value (Enterococcus sp.; Enterococcus faecium (GC 2243)) was 4 µg/mL (≈ 2.79 µM), the “MIC Enterococcus faecium (GC 4556)” value (Enterococcus sp.; Enterococcus faecium (GC 4556)) was 4 µg/mL (≈ 2.79 µM) and the “MIC Enterococcus faecium (GC 4557)” value (Enterococcus sp.; Enterococcus faecium (GC 4557)) was 2 µg/mL (≈ 1.4 µM). The “MIC Enterococcus avium (GC 4558)” value (Enterococcus sp.; [1]) was 1 µg/mL (≈ 0.699 µM), the “MIC Enterococcus faecalis (ATCC 29212)” value (Enterococcus sp.; [1]) was 4 µg/mL (≈ 2.79 µM) and the “MIC Enterococcus faecalis (GC 2242)” value (Enterococcus sp.; [1]) was 4 µg/mL (≈ 2.79 µM). The “MIC Enterococcus faecalis (GC 2691)” value (Enterococcus sp.; [1]) was 2 µg/mL (≈ 1.4 µM), the “MIC Enterococcus faecalis (GC 3059)” value (Enterococcus sp.; [1]) was 2 µg/mL (≈ 1.4 µM) and the “MIC Enterococcus faecalis (GC 4552)” value (Enterococcus sp.; [1]) was 4 µg/mL (≈ 2.79 µM). For the same molecule, the “MIC Enterococcus faecalis (GC 4553)” value (Enterococcus sp.; [1]) was 4 µg/mL (≈ 2.79 µM), the “MIC Enterococcus faecalis (GC 4554)” value (Enterococcus sp.; [1]) was 4 µg/mL (≈ 2.79 µM) and the “MIC Enterococcus faecalis (GC 6189)” value (Enterococcus sp.; [1]) was 2 µg/mL (≈ 1.4 µM). For the same molecule, the “MIC Enterococcus faecium (GC 2243)” value (Enterococcus sp.; [1]) was 4 µg/mL (≈ 2.79 µM), the “MIC Enterococcus faecium (GC 4556)” value (Enterococcus sp.; [1]) was 4 µg/mL (≈ 2.79 µM) and the “MIC Enterococcus faecium (GC 4557)” value (Enterococcus sp.; [1]) was 2 µg/mL (≈ 1.4 µM). The “MIC Escherichia coli (ATCC 25922)” value (Escherichia coli; Escherichia coli (ATCC 25922)) was 32 µg/mL (≈ 22.4 µM), the “MIC Escherichia coli (GC 4559)” value (Escherichia coli; Escherichia coli (GC 4559)) was 64 µg/mL (≈ 44.7 µM) and the “MIC Escherichia coli (GC 4560)” value (Escherichia coli; Escherichia coli (GC 4560)) was 2 µg/mL (≈ 1.4 µM).
